Consider one compound from US20070071778A1 (ISP INVESTMENTS INC., priority 2005, published 2007).

The test deals with mixed fungal inoculum (Aspergillus niger, Penicillium funiculosum and Stachybotrys chartarum). As to the kind of experiment: Fungicidal efficacy on water saturated gypsum boards. The test is classed as cell-based. Details: key: Presence (+); Absence (−) of Fungal Growth. The settings on record: gypsum board, 1,000 ppm triclosan, 28° C., 80% RH, 30-45 days. Here is the method: The compositions of Example 9 were diluted to 1,000 ppm of triclosan. Then both sides of a gypsum board (cream and grey) sample (2×2×½ in.) were brush coated with each formulation and allowed to dry for 24 hours. The Controls were gypsum boards treated with only water or with only 1,000 ppm of triclosan in dimethyl sulfamide. The treated gypsum boards were then placed on a Petri dish and water was added to saturate the board. The water saturated gypsum boards were then inoculated with a mixed fungal inoculum (Aspergillus niger, Penicillium funiculosum and Stachybotrys chartarum) containing ca. 10^5 spores/ml. The samples were incubated at 28° C., 80% RH for 30-45 days and rated for the presence or absence of fungal growth thereon. Samples showing no growth were re-inoculated and incubated for another 30-45 days.

Turning to `Oc1cc(Cl)ccc1Oc1ccc(Cl)cc1Cl` [Triclosan, triclosan], the “Presence (+)/Absence (−) of Fungal Growth, Cream Side” value was “+” and the “Presence (+)/Absence (−) of Fungal Growth, Grey Side” value is given as “+”.
